In patent publication US9181188B2, “Aryl ureas as kinase inhibitors” (Bayer Healthcare LLC, priority 2002, dated 2015):

For `CNC(=O)c1cc(Oc2ccc(NC(=O)Nc3ccc(Cl)c(C(F)(F)F)c3)cc2)cc[n+]1[O-]` [Example 1, N-[4-chloro-3-(trifluoromethyl)phenyl]-N′-{4-[2-(N-methylcarbamoyl)-1-oxo-(4-pyridyloxy)]phenyl}urea], which melting point is on record?
The melting point was 232 to 234 °C.
